Values of other authors in patent publication US5612341A, “Brominated hexahydroxybiphenyl derivatives” (Biotech Research Laboratories, priority 1995, dated 1997).

Target: HIV-1 reverse transcriptase (Human immunodeficiency virus type 1 group M subtype B, UniProt P04585)
Conditions: more with Poly(rC)-olig(dG) than with Poly(rA)-olig(dT); cited from earlier work

With `Cc1ccnc2c1NC(=O)c1cccnc1N2C1CC1` [Nevarapine] as the compound, how does the “inhibitory activity using Poly(rC)-olig(dG) versus Poly(rA)-olig(dT)” value read?
The value was “more inhibitory activity”.
